Literature values in patent publication US11648313B2, “Multimodal therapy for cancer cell destruction” (Southeast Missouri State University, priority 2015, dated 2023).

Columns and labels:
[1] = target: FAK (Homo sapiens, UniProt Q05397)
[2] = tested on: NF-kB; details: neuroblastoma cells

Sequence of FAK (Q05397 whole entry): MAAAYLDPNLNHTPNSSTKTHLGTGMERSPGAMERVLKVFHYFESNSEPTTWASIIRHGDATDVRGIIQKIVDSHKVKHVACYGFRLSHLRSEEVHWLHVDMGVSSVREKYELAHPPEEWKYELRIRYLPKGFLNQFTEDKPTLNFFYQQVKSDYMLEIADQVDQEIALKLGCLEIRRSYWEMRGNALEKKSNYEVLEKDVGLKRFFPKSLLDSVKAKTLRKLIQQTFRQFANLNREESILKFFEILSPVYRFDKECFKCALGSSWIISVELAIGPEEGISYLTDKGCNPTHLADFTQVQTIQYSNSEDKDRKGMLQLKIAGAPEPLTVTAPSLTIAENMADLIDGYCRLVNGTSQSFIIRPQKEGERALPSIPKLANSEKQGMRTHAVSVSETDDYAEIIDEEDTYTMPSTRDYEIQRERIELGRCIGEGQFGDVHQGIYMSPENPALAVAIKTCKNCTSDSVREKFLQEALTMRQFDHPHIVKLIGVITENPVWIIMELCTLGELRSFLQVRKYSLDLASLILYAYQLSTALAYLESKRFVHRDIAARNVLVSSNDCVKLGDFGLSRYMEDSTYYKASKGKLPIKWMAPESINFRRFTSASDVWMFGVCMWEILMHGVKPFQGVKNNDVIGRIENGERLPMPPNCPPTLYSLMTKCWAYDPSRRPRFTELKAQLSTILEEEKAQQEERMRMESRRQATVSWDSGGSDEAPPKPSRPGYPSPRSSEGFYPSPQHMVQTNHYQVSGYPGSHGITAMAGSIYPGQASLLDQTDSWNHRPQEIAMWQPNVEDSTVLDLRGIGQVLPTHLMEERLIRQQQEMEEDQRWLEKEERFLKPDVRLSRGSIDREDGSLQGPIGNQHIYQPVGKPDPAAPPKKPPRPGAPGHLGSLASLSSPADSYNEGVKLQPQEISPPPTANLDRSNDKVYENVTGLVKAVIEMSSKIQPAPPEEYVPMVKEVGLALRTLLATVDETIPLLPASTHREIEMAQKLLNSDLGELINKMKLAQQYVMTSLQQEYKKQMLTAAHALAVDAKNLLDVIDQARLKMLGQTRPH

Structure (SMILES)	water solubility	effect of FAK inhibition on cell survival, apoptosis, cell cycle [1]	NF-kB activation [2]
CNC(=O)c1ccccc1Nc1nc(Nc2ccc(N3CCOCC3)cc2OC)ncc1Cl [NVP-TAE 226]	adequate water solubility	decreased cell survival, increased apoptosis, and G2 cell cycle arrest	–
COc1cc([C@@H]2c3cc4c(cc3[C@@H](O[C@@H]3O[C@@H]5CO[C@@H](C)O[C@H]5[C@H](O)[C@H]3O)[C@H]3COC(=O)[C@H]23)OCO4)cc(OC)c1O [VP16]	–	–	trigger NF-kB activation
Cl.Cl.Cl.Cl.Nc1cc(N)c(N)cc1N [Y15]	adequate water solubility	decreased cell survival, increased apoptosis, and G2 cell cycle arrest	–
COc1cccc2c1C(=O)c1c(O)c3c(c(O)c1C2=O)C[C@@](O)(C(=O)CO)C[C@@H]3O[C@H]1C[C@H](N)[C@H](O)[C@H](C)O1 [doxorubicin]	–	–	trigger NF-kB activation
